Consider 16 molecules from patent publication US20260217652A1, “PHENYL-SUBSTITUTED HETEROARYL COMPOUND AND PHARMACEUTICAL COMPOSITION COMPRISING SAME, PREPARATION METHOD THEREFOR AND USE THEREOF” (SHANGHAI MEIYUE BIOTECH DEVELOPMENT CO., LTD., priority 2023, published 2026).

For one data set, the target named is T1, p38 MAPK/MK2 (Homo sapiens, UniProt Q16539).
T1 construct: purchased Carna (p38α); Abcam (MK2) 04-152; 79910
As to the kind of experiment: In vitro activity assay of p38 MAPK/MK2 (Z-LYTE kinase assay kit). Type of data set: biochemical. The note with it: active p38α, inactive MK2, Ser/Thr 4; 1-hour reaction at 20° C. How it is done:
(§1) The inhibitory effect of the compound on p38 MAPK/MK2 was evaluated using the Z-LYTE kinase assay kit (Thermo, PV3177). The test compound was dissolved in DMSO to obtain a 10 mM stock solution and stored at −20° C. for future use. The initial concentration of the compound was […], with 1% DMSO, 5-fold serial dilution, 8 concentrations, and duplicate wells. […] After a 1-hour reaction at 20° C., Development Reagent A diluted 2048-fold was added to each well, followed by incubation at room temperature for 1 hour. The reaction was terminated by adding 5 μL of stop buffer, and the plate was read using a microplate reader (Ex. 400 nm, Em. 445 nm; Ex. 400 nm, Em. 520 nm). The concentration-effect curve was fitted using GraphPad Prism 8 software, and the compound concentration resulting in 50% inhibition, IC50, was calculated.

A short description of data set [1]: In vitro liver microsome stability, mouse. The note with it: liver microsomes, 0.5 mg/mL microsomes, 1 μM compound, NADPH, 37° C., read-out: Mouse liver microsomes Half-life T1/2. Type of data set: in vitro ADME. On the procedure:
(§2) The reference compound used in this experiment was Ketanserin, and the final concentration of microsomes in the experimental system was 0.5 mg/mL. The PBS buffer was a 50 mM K2HPO4 buffer. The concentration of the test compound was 1 μM. The microsomes were added to PBS, and the control/test compounds were respectively added to the corresponding reaction systems, mixed thoroughly, and pre-incubated in a 37° C. water bath for 5 minutes. The reaction was initiated by adding 20 mM NADPH solution under 37° C. water bath conditions (for the No NADPH samples, an equal volume of PBS solution was used as a substitute for the 20 mM NADPH solution). At the reaction time points of 0 min, 10 min, 30 mun, 60 min, and 90 min, 30 μL of reaction samples were taken from each reaction system (for the No NADPH samples, sampling was performed at 0 min and 90 min), and the reaction was immediately terminated by adding 300 μL of the internal standard acetonitrile solution. After centrifugation at 4000 rpm, the supernatant was taken and mixed thoroughly with an equal volume of pure water. The samples at each time point were analyzed by LC-MS/MS (AB Triple Quard 5500) to determine the compound content, and the T1/2 was calculated.

Data set [2] can be described thus: In vitro liver microsome stability, rat. The note with it: liver microsomes, 0.5 mg/mL microsomes, 1 μM compound, NADPH, 37° C., read-out: Rat liver microsomes Half-life T1/2. The data set is classed as in vitro ADME. On the procedure:
as §2
In general terms: Microsomes from liver hold many membrane-bound enzymes, among them those of drug oxidation.

In data set [3] the test system is TNF-α in human PBMC cells. As to the kind of experiment: In vitro TNF-α activity assay in human PBMC cell supernatant (LPS, ELISA). Type of data set: cell-based. The note with it: LPS 100 ng/mL, read-out: p38 MAPK/TNF-α IC50. How it is done: The inhibitory effect of the compound on TNF-α in the supernatant of human PBMC cells was evaluated using an ELISA detection kit (Beyotime, PI518). The test compound was dissolved in DMSO to obtain a 10 mM stock solution and stored at −20° C. for future use. The initial concentration of the compound was […], followed by 5-fold serial dilution to obtain 6 concentrations. Cells were plated in duplicate, and ELISA was performed in single wells. The final concentration of DMSO was 0.4%. Alternatively, the initial concentration of the compound, dilution factor, number of concentration gradients, and replicates could be adjusted based on the specific screening conditions.
Fresh human peripheral blood mononuclear cells (PBMCs) (Sailybio) were seeded at a density of 2×10^5 cells per well in a 96-well plate (Corning, 3599), with each well containing 100 μL of RPMI-1640 (Gibco #A1049101)+10% FBS (Gibco, 10099141C), and incubated overnight at 37° C. under 5% CO2. Test compounds were added to the 96-well culture plate at a volume of 25 μL per well. After 1 hour, 5 μL of LPS was added to achieve a final concentration of 100 ng/mL. No LPS and compound were added to the negative control wells, and no compound was added to the positive control wells. The mixture was further incubated for 24 hours at 37° C. under 5% CO2. Subsequently, the cell culture supernatant was collected by centrifugation at 500 rcf for 8 minutes. The concentration of TNF-α was measured according to the operation manual of the ELISA kit. The concentration-effect curve was fitted using GraphPad Prism 8 software, and the compound concentration resulting in 50% inhibition, IC50, was calculated.
For orientation: An ELISA detects its analyte on a solid surface through an enzyme-linked reagent.

Data set [4] can be described thus: In vitro liver microsome stability, human. Type of data set: in vitro ADME. The conditions noted are these: liver microsomes, 0.5 mg/mL microsomes, 1 μM compound, NADPH, 37° C., read-out: Human liver microsomes Half-life T1/2. On the procedure:
as §2

A further data set has as its target T2, p38 MAPK/MK5 (Homo sapiens, UniProt Q16539).
T2 construct: purchased Carna (p38α); Abcam (MK5) 04-152; 217826
As to the kind of experiment: In vitro activity assay of p38 MAPK/MK5 (Z-LYTE kinase assay kit). Type of data set: biochemical. The note with it: active p38α, inactive MK5, Ser/Thr 4; 4-hour reaction at 20° C. On the procedure:
as §1, with “MAPK/MK5” for “MAPK/MK2”, “4-hour” for “1-hour”, “µL” for “μL”

Data set [5] in a line: Pharmacokinetic evaluation in mice. The data set is classed as in vivo. The note with it: mouse, plasma; for AUC(0-t): read-out: Area under curve AUC0-24 h; for half-life: read-out: Half-life T1/2 (converted). How it is done: The compound was weighed and dissolved in a mixed solvent of DMAC: Solutol: PBS (1:1:8. After intravenous/gastric administration to mice, whole blood ([…]) was collected at 0.083, 0.25, 0.5, 1, 2, 4, 7, and 24 hours. The samples were anticoagulated with EDTA-K2, immediately centrifuged at 4000 rpm for 5 minutes at 4° C., and the supernatant was frozen in a −80° C. refrigerator. Plasma sample processing: The samples were precipitated with an internal standard-containing CH3CN precipitant, followed by centrifugation at 12700 rpm for 10 min. The supernatant was collected and analyzed by LC-MS/MS (AB Triple Quard 5500) to obtain the plasma drug concentration. The parameters were calculated using a non-compartmental model in Winnolin version 8.1.

The mark [6] stands for this setting: intravenous injection group 1 mg/kg.
Setting [7] is: po, intragastric administration group 5 mg/kg.

Where two headings read alike, the source gives them in different places.

T2 sequence (Q16539 whole entry): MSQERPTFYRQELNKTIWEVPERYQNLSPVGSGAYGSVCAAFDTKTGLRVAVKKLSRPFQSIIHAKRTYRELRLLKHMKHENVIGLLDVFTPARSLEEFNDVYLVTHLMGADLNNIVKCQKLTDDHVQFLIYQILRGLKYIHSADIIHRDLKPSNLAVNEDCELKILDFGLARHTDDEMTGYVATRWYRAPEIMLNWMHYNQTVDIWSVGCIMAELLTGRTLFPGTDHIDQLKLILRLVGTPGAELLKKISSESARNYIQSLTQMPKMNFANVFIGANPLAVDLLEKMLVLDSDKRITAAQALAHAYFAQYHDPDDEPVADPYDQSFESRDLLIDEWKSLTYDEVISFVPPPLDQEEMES
T1 sequence (Q16539 whole entry): as above
T1 sequence (P49137 whole entry partner): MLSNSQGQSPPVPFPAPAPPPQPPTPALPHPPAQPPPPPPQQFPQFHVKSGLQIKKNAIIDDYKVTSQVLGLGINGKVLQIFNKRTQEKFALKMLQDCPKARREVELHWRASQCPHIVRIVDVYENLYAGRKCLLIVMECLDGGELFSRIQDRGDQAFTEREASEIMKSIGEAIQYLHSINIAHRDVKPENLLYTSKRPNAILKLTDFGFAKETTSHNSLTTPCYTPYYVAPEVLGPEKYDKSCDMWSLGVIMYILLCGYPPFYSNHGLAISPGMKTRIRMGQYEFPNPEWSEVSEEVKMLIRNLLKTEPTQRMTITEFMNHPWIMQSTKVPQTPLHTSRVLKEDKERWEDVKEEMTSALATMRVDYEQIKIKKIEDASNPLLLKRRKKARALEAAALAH

As for `CNC(=O)c1cccc(-c2cc(-n3c(C)cc(OCc4ncc(F)cc4F)c(Cl)c3=O)c(C)cn2)c1F` (single isomer, unassigned) [Compound 20-P2], the IC50 was determined as 0.27 nM at p38 MAPK/MK2 and 4.2 nM in data set [3] (24 hours). The half-life at 1 μM in data set [1], in data set [2] and in data set [4] was over 4.66 h in each case.

On to `Cc1cnc(-c2cccc(C(=O)N(C)C)c2)cc1-n1c(C)cc(OCc2ncc(F)cc2F)c(Cl)c1=O` [Compound 3], for which the values for the IC50 against p38 MAPK/MK5 and against p38 MAPK/MK2 were over 10000 nM and 21.7 nM, respectively.

In the case of `Cc1cnc(-c2cccc(S(C)(=O)=O)c2)cc1-n1c(C)cc(OCc2ncc(F)cc2F)c(Cl)c1=O` [Compound 11], the IC50 stood at 14.6 nM against p38 MAPK/MK2 and 18.4 nM in data set [3] (Homo sapiens, PBMC, 24 h). Besides, the half-life at 1 μM was 4.22 h in data set [1], 3.79 h in data set [2] and over 4.66 h in data set [4].

A word on the clearance: it is a measure of how efficiently the substance is removed, as volume per time. For orientation: Vd means a proportionality between amount in the body and measured concentration, not a real space. As a reminder, the bioavailability is the share of a dose that reaches the circulation, judged against a reference dose that is usually intravenous. With `Cc1cnc(-c2cccc(C(N)=O)c2)c(F)c1-n1c(C)cc(OCc2ncc(F)cc2F)c(Cl)c1=O` [Compound 30-P1], the IC50 against p38 MAPK/MK5 amounted to 5660 nM; against p38 MAPK/MK2, 0.16 nM; in data set [3] (Homo sapiens, PBMC, 24 h), 8.68 nM. The AUC(0-t) in data set [5] (setting [6]) stood at 1100 ng·h/mL; in data set [5] (setting [7]) it was 2640 ng·h/mL. Besides, in data set [5] (intravenous injection group 1 mg/kg, read-out: Clearance CL (converted)), the clearance was 15.2 mL/min/kg. Besides, the half-life was 0.47 h in data set [5] (setting [6]) and 3.31 h in data set [5] (setting [7]). For the same molecule, the C0 in data set [5] (intravenous injection group 1 mg/kg, read-out: Initial concentration C0) was 2410 ng/mL. Further, the Vd in data set [5] (intravenous injection group 1 mg/kg, read-out: Volume of distribution Vd) was 0.41 L/kg. In addition, the bioavailability in data set [5] (po, intragastric administration group 5 mg/kg, read-out: Bioavailability F %) worked out at 48%. Moreover, the Cmax in data set [5] (po, intragastric administration group 5 mg/kg, read-out: Maximum concentration Cmax) was 1570 ng/mL.

`Cc1cnc(-c2cccc(C(=O)N(C)C)c2)c(F)c1-n1c(C)cc(OCc2ncc(F)cc2F)c(Cl)c1=O` [Compound 32]: the values for the IC50 (against p38 MAPK/MK5; against p38 MAPK/MK2; in data set [3] (24 hours)) were 6250 nM, 3.65 nM and 2.89 nM, respectively.

Take `Cc1cnc(-c2ccc(F)c([C@](C)(O)CO)c2)c(F)c1-n1c(C)cc(OCc2ncc(F)cc2F)c(Cl)c1=O` [Compound 51-P2]: the figures for the IC50 against p38 MAPK/MK5 and at p38 MAPK/MK2 were 4490 nM and 0.71 nM, respectively.

As for `Cc1cnc(-c2ccc(F)c(C(C)(C)O)c2)c(F)c1-n1c(C)cc(OCc2ncc(F)cc2F)c(Cl)c1=O` [Compound 70-P1], the IC50 was 0.38 nM against p38 MAPK/MK2 and 11.2 nM in data set [3] (Homo sapiens, PBMC, 24 h). The half-life at 1 μM in data set [4] was over 4.66 h.

Consider `Cc1cnc(-c2ccc(F)c(C(C)(C)O)c2)cc1-n1c(C)cc(OCc2ncc(F)cc2F)c(Cl)c1=O` [Compound 88-P2], for which the IC50 against p38 MAPK/MK2 turned out to be 2.11 nM. Besides, the half-life at 1 μM in data set [4] is over 4.66 h.

Consider `Cc1cnc(-c2ccc(F)c(C(C)(C)O)c2F)cc1-n1c(C)cc(OCc2ncc(F)cc2F)c(Cl)c1=O` [Compound 111-P2], for which the IC50 against p38 MAPK/MK2 turned out to be 0.22 nM; in data set [3] (Homo sapiens, PBMC, 24 h), 1.43 nM. Further, the half-life at 1 μM in data set [1], in data set [2] and in data set [4] was over 4.66 h in each case.

Turning to `Cc1cnc(-c2cccc([C@@](C)(O)CO)c2F)c(F)c1-n1c(C)cc(OCc2ncc(F)cc2F)c(Cl)c1=O` [Compound 112-P1], the IC50 against p38 MAPK/MK2 was determined as 0.13 nM; in data set [3] (Homo sapiens, PBMC, 24 h), 0.44 nM. Also, in data set [4], the half-life at 1 μM is over 4.66 h.

In the case of `Cc1cnc(-c2ccc(F)c([C@@](C)(O)CO)c2F)c(F)c1-n1c(C)cc(OCc2ncc(F)cc2F)c(Cl)c1=O` [Compound 113-P1], the IC50 against p38 MAPK/MK2 amounted to 0.09 nM; in data set [3] (Homo sapiens, PBMC, 24 h), 1.7 nM. The half-life at 1 μM in data set [4] was over 4.66 h.

Molecule `CNC(=O)C(C)(O)c1cc(-c2ncc(C)c(-n3c(C)cc(OCc4ncc(F)cc4F)c(Cl)c3=O)c2F)ccc1F` (stereo not drawn) [Compound 124-P2] gave an IC50 on p38 MAPK/MK2 of 0.1 nM. The half-life at 1 μM in data set [4] is over 4.66 h.

Consider `Cc1cnc(-c2ccc(F)c(C(C)(O)C(N)=O)c2)c(F)c1-n1c(C)cc(OCc2ncc(F)cc2F)c(Cl)c1=O` (stereo not drawn) [Compound 128-P1], for which the IC50 on p38 MAPK/MK2 worked out at 0.15 nM. In addition, the half-life at 1 μM in data set [4] was over 4.66 h.

Consider `Cc1cc(OCc2ncc(F)cc2F)c(Cl)c(=O)n1-c1ccnc(-c2cccc(C(C)(C)O)c2F)c1` [Compound 141], for which the IC50 at p38 MAPK/MK2 was found to be 0.794 nM; in data set [3] (Homo sapiens, PBMC, 24 h), 14.1 nM. The half-life at 1 μM is over 4.66 h in data set [1] and 2.51 h in data set [2].

With `[2H]C([2H])(Oc1cc(C)n(-c2cc(-c3ccc(F)c([C@@](C)(O)CO)c3F)ncc2C)c(=O)c1Cl)c1ncc(F)cc1F` [Compound 145-P1], the IC50 stood at 1.19 nM against p38 MAPK/MK2 and 8.51 nM in data set [3] (Homo sapiens, PBMC, 24 h). In addition, the half-life at 1 μM in data set [1], in data set [2] and in data set [4] was over 4.66 h each time.

On to `[2H]C([2H])(Oc1cc(C)n(-c2cc(-c3cccc([C@@](C)(O)CO)c3F)ncc2C)c(=O)c1Cl)c1ncc(F)cc1F` [Compound 146-P1], for which the IC50 against p38 MAPK/MK2 is 1.43 nM; in data set [3] (Homo sapiens, PBMC, 24 h), 3.38 nM. In addition, the half-life at 1 μM in data set [1] was 2.29 h; in data set [2], over 4.66 h; in data set [4], over 4.66 h.
